We go through two compounds from patent US9770045B2, “Preservation of animal feed and hydrolysis of polysaccharides using amino acids as salts or with acids” (priority 2015, dated 2017).

For series [1] the following is noted: 60° C., one hour (FIG. 3). The procedure: Seaweed Hydrolysis. […] The samples were heated to 60° C. Approximately 0.1 grams of seaweed was measured and added to each sample. The acid/seaweed mixtures were placed in an incubator set at 60° C. for one hour. At twenty minute intervals, 0.4 mL were taken from the samples and neutralized to a high pH (>10) with 0.6 mL of a concentrated aqueous NaOH solution.
Seaweed DNS Assay. To each of the neutralized mixtures, 0.2 mL of DNS solution (1% dinitrosalicyclic acid, 0.02% phenol, 0.25 M NaOH) was added. These samples were then placed in boiling water for approximately ten minutes until the brown color remained stable. The samples were then removed and 0.4 mL of a 40% potassium sodium tartrate solution was added to stabilize the color. The solutions were allowed to cool to room temperature and then the absorbance was recorded at 570 nm.

For series [2] the following is noted: for rate in hydrolyzing switch grass: 60° C., one hour (FIG. 4). On the procedure:
Switch Grass Hydrolysis. […] The samples were heated to 60° C. Approximately 0.1 grams of switch grass was measured and added to each sample. The acid/switch grass mixtures were placed in an incubator set at 60° C. for one hour. At 0, 10, 20, 40, and 60 minutes, 0.4 mL were taken from the samples and neutralized to a high pH (>10) with 0.6 mL of a concentrated aqueous NaOH solution.
Switch Grass DNS Assay. To each of the neutralized mixtures, 0.2 mL of DNS solution (1% dinitrosalicyclic acid, 0.02% phenol, 0.25 M NaOH) was added. These samples were then placed in boiling water for approximately ten minutes until the brown color remained stable. Then 0.2 mL of each sample was mixed with 0.2 mL of a 40% potassium sodium tartrate solution and 1 mL of deionized water. The solutions were allowed to cool to room temperature and then the absorbance was recorded at 570 nm.

Series [3] is described as follows: Cellulose (carboxymethylcellulose) hydrolysis, DNS sugar assay. The conditions noted are these: carboxymethylcellulose (FIG. 2, FIG. 5). The text has this: Dinitrosalicyclic Acid Sugar Assay. The DNS sugar assay utilizes the reduction of dinitrosalicyclic acid by simple monosaccharides to create a change in color, respective the concentration of sugar in each sample (Rivers). A 1% dinitrosalicyclic acid solution was created with 0.25 M NaOH and […]. Another solution of 40% Sodium Potassium Tartrate was made to act as a color stabilizer to be added to the sample after the reaction. This procedure requires the experimental sample to be mixed with the DNS Assay solution and heated at approximately 100° C. for ten minutes. After the colorimetric reaction has occurred, the sodium potassium tartrate solution is added to stabilize the color change. The resulting color change can be measured using the wavelength of 570 nm.
Cellulose Hydrolysis. 5 mL of each acid was added to a glass container. Then, 0.1 grams of carboxymethylcellulose was slowly poured in to each sample. The containers were then capped and placed in a 60° C. incubator. At specific time intervals, 0.4 mL were taken and neutralized by 0.6 mL of a strong KOH solution to a pH above 10 in 1.5 mL microfuge tubes. Then 0.2 mL of the DNS Assay solution was added to each sample, which were then placed in a boiling water bath for ten minutes. […] The absorbance of the samples were then measured at 570 nm in a UV-Vis spectrophotometer and compared to a standard curve.

Where a name gives a salt, the structure may show the parent alone.

As to `NCC(=O)O` [6M Glycine—HCl, glycine hydrochloride], in series [1], the “rate in hydrolyzing seaweed” value is listed as “about the same rate”. In addition, in series [2], the “rate in hydrolyzing switch grass” value was “about the same rate” and the “pH change after switch grass hydrolysis” value is on record as “lowered”. Besides, the hydrolysis rate entry in series [3] is “equal to that of Oil Safe AR®”.
Turning to `Cl` [6M HCl, hydrochloric acid, reference compound], the “rate in hydrolyzing seaweed” value in series [1] is on record as “about the same rate”. For the same compound, in series [2], the “rate in hydrolyzing switch grass” value was “about the same rate” and the “pH change after switch grass hydrolysis” value is on record as “increased”.
